From patent US20260297081A1, “COMPOUNDS AND METHODS OF TREATING CANCERS” (Cullgen Inc., priority 2023, published 2026)

Molecular target: CDK4 (Homo sapiens, UniProt P11802+Q16531)
Experiment: CDK4 percentage degradation in Calu-1 cells (Table 6)
Format: cell-based
Design: Cells that express cyclin D1-3 and CDK4/6 proteins were treated with heterobifunctional compounds; endogenous in cells; host or cells: Calu-1
Conditions: 16 hours; for inhibition at 0.04 µM: 40 nM; for inhibition at 0.2 µM: 200 nM
Procedure, shortened: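 Percentage degradation of Cyclin D1 and CDK4 derived from densitometry of ECL Western blots on lysates of Calu-1 cells. Treatment was 16 h with compound at either 40 nM or 200 nM.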

Sequence of CDK4 (P11802 2-303 limits assumed): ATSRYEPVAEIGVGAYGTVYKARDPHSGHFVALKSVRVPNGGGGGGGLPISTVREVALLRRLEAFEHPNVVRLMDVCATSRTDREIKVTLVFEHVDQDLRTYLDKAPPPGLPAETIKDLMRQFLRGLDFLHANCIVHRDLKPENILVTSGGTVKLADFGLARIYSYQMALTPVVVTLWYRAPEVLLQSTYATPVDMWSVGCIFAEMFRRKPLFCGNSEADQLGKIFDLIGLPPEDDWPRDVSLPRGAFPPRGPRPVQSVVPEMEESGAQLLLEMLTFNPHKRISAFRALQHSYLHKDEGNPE
Sequence of CDK4 (P24385 whole entry partner): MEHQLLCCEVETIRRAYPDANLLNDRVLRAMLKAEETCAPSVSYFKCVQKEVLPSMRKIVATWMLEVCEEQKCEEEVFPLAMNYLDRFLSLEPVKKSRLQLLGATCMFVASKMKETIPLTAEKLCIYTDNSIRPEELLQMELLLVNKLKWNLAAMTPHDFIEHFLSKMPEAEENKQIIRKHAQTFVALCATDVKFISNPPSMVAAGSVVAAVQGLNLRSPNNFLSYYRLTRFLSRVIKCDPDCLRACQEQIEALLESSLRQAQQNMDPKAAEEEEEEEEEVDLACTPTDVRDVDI
Sequence of CDK4 (Q16531 2-1140 limits assumed): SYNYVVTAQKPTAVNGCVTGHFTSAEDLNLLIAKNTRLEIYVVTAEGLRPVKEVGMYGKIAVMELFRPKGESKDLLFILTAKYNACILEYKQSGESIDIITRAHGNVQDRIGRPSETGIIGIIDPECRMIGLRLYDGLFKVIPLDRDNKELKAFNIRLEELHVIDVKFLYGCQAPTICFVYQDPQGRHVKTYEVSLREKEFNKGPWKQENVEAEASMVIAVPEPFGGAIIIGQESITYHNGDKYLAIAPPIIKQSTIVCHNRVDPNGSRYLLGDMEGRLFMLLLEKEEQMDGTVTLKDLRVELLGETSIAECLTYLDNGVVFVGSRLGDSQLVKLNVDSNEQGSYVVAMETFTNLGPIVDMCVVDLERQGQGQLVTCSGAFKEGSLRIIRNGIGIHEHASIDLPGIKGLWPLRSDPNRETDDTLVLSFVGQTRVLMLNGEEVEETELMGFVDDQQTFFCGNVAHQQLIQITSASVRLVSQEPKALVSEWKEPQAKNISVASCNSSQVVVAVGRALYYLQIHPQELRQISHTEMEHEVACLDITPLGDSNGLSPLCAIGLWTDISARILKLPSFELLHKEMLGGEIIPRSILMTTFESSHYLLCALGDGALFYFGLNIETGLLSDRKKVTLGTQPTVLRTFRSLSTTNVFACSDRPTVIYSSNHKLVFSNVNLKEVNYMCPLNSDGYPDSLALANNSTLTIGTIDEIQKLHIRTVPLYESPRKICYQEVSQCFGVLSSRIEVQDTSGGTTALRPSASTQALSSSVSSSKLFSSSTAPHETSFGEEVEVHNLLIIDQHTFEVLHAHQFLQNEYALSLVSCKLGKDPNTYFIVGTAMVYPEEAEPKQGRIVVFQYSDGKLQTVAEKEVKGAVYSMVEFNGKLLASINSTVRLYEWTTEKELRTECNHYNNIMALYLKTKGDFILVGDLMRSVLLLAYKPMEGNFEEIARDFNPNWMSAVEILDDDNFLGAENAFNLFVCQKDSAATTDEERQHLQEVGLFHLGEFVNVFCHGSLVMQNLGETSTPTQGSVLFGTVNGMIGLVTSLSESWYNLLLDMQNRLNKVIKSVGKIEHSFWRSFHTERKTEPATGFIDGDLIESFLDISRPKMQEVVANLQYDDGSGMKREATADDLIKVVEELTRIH

| inhibition at 0.04 µM [%] | inhibition at 0.2 µM [%] | Structure (SMILES) |
| --- | --- | --- |
| < 30 | 30 to 50 | CNc1ccc(C(=O)Nc2ccc(N(C)C)nn2)c(NC[C@H]2CC[C@H](CNC(=O)N3CCN(c4ccc(Nc5ncc6c(C)c(C(C)=O)c(=O)n(C7CCCC7)c6n5)nc4)CC3)CC2)n1 [CPD-169, 4-(6-((6-acetyl-8-cyclopentyl-5-methyl-7-oxo-7,8-dihydropyrido[2,3-d]pyrimidin-2-yl)amino)pyridin-3-yl)-N-((trans-4-(((3-((6-(dimethylamino)pyridazin-3-yl)carbamoyl)-6-(methylamino)pyridin-2-yl)amino)methyl)cyclohexyl)menthyl)piperazine-1-carboxamide] |
| 50 to 80 | 50 to 80 | CNc1ccc(C(=O)Nc2ccc(N(C)C)nn2)c(NC2CC(CNC(=O)C3(CN4CCN(c5ccc(Nc6ncc7c(C)c(C(C)=O)c(=O)n(C8CCCC8)c7n6)nc5)CC4)CC3)C2)n1 (centres unmarked) [CPD-172, 2-((3-((1-((4-(6-((6-acetyl-8-cyclopentyl-5-methyl-7-oxo-7,8-dihydropyrido[2,3-d]pyrimidin-2-yl)amino)pyridin-3-yl)piperazin-1-yl)methyl)cyclopropane-1-carboxamido)methyl)cyclobutyl)amino)-N-(6-(dimethylamino)pyridazin-3-yl)-6-(methylamino)nicotinamide] |
| < 30 | 50 to 80 | CNc1ccc(C(=O)Nc2cccc(C3CC3)n2)c(NC2CC3(C2)CN(C(=O)C(C)(C)N2CCN(c4ccc(Nc5ncc6c(C)c(C(C)=O)c(=O)n(C7CCCC7)c6n5)nc4)CC2)C3)n1 [CPD-175, 2-((2-(2-(4-(6-((6-acetyl-8-cyclopentyl-5-methyl-7-oxo-7,8-dihydropyrido[2,3-d]pyrimidin-2-yl)amino)pyridin-3-yl)piperazin-1-yl)-2-methylpropanoyl)-2-azaspiro[3.3]heptan-6-yl)amino)-N-(6-cyclopropylpyridin-2-yl)-6-(methylamino)nicotinamide] |
| < 30 | 50 to 80 | CNc1ccc(C(=O)Nc2cccc(C)n2)c(NC2CC3(C2)CN(C(=O)C(C)(C)N2CCN(c4ccc(Nc5ncc6c(C)c(C(C)=O)c(=O)n(C7CCCC7)c6n5)nc4)CC2)C3)n1 [CPD-176, 2-((2-(2-(4-(6-((6-acetyl-8-cyclopentyl-5-methyl-7-oxo-7,8-dihydropyrido[2,3-di]pyrimidin-2-yl)amino)pyridin-3-yl)piperazin-1-yl)-2-methylpropanoyl)-2-azaspiro[3.3]heptan-6-yl)amino)-6-(methylamino)-N-(6-methylpyridin-2-yl)nicotinamide] |
| < 30 | 50 to 80 | CNc1ccc(C(=O)Nc2ccc(N(C)C)c(C3CC3)n2)c(NC2CC3(CC(NC(=O)CN4CCN(c5ccc(Nc6ncc7c(C)c(C(C)=O)c(=O)n(C8CCCC8)c7n6)nc5)CC4)C3)C2)n1 (centres unmarked) [CPD-177, 2-((6-(2-(4-(6-((6-acetyl-8-cyclopentyl-5-methyl-7-oxo-7,8-dihydropyrido[2,3-d]pyrimidin-2-yl)amino)pyridin-3-yl)piperazin-1-yl)acetamido)spiro[3.3]heptan-2-yl)amino)-N-(6-cyclopropyl-5-(dimethylamino)pyridin-2-yl)-6-(methylamino)nicotinamide] |
| 50 to 80 | 50 to 80 | CNc1ccc(C(=O)Nc2cn(C)c(C)n2)c(NC2CC3(CC(NC(=O)CN4CCN(c5ccc(Nc6ncc7c(C)c(C(C)=O)c(=O)n(C8CCCC8)c7n6)nc5)CC4)C3)C2)n1 (centres unmarked) [CPD-179, 2-((6-(2-(4-(6-((6-acetyl-8-cyclopentyl-5-methyl-7-oxo-7,8-dihydropyrido[2,3-d]pyrimidin-2-yl)amino)pyridin-3-yl)piperazin-1-yl)acetamido)spiro[3.3]heptan-2-yl)amino)-N-(1,2-dimethyl-1H-imidazol-4-yl)-6-(methylamino)nicotinamide] |
| < 30 | 30 to 50 | CNc1ccc(C(=O)Nc2cccc(N)n2)c(NC2CC3(CC(NC(=O)CN4CCN(c5ccc(Nc6ncc7c(C)c(C(C)=O)c(=O)n(C8CCCC8)c7n6)nc5)CC4)C3)C2)n1 (centres unmarked) [CPD-180, 2-((6-(2-(4-(6-((6-acetyl-8-cyclopentyl-5-methyl-7-oxo-7,8-dihydropyrido[2,3-d]pyrimidin-2-yl)amino)pyridin-3-yl)piperazin-1-yl)acetamido)spiro[3.3]heptan-2-yl)amino)-N-(6-aminopyridin-2-yl)-6-(methylamino)nicotinamide] |
| 30 to 50 | 50 to 80 | CNc1cccc(NC(=O)c2ccc(NC)nc2NC2CC3(CC(NC(=O)CN4CCN(c5ccc(Nc6ncc7c(C)c(C(C)=O)c(=O)n(C8CCCC8)c7n6)nc5)CC4)C3)C2)n1 (centres unmarked) [CPD-181, 2-((6-(2-(4-(6-((6-acetyl-8-cyclopentyl-5-methyl-7-oxo-7,8-dihydropyrido[2,3-d]pyrimidin-2-yl)amino)pyridin-3-yl)piperazin-1-yl)acetamido)spiro[3.3]heptan-2-yl)amino)-6-(methylamino)-N-(6-(methylamino)pyridin-2-yl)nicotinamide] |
| 30 to 50 | 30 to 50 | CNc1ccc(C(=O)Nc2ccc(C)c(C)n2)c(NC2CC3(CC(NC(=O)CN4CCN(c5ccc(Nc6ncc7c(C)c(C(C)=O)c(=O)n(C8CCCC8)c7n6)nc5)CC4)C3)C2)n1 (centres unmarked) [CPD-182, 2-((6-(2-(4-(6-((6-acetyl-8-cyclopentyl-5-methyl-7-oxo-7,8-dihydropyrido[2,3-d]pyrimidin-2-yl)amino)pyridin-3-yl)piperazin-1-yl)acetamido)spiro[3.3]heptan-2-yl)amino)-N-(5,6-dimethylpyridin-2-yl)-6-(methylamino)nicotinamide] |
| 50 to 80 | 50 to 80 | CNc1ccc(C(=O)Nc2ccn(C)c2)c(NC2CC3(CC(NC(=O)CN4CCN(c5ccc(Nc6ncc7c(C)c(C(C)=O)c(=O)n(C8CCCC8)c7n6)nc5)CC4)C3)C2)n1 (centres unmarked) [CPD-183, 2-((6-(2-(4-(6-((6-acetyl-8-cyclopentyl-5-methyl-7-oxo-7,8-dihydropyrido[2,3-d]pyrimidin-2-yl)amino)pyridin-3-yl)piperazin-1-yl)acetamido)spiro[3.3]heptan-2-yl)amino)-N-(1-methyl-1H-pyrrol-3-yl)-6-(methylamino)nicotinamide] |
| 50 to 80 | 50 to 80 | CNc1ccc(C(=O)Nc2cccc(C(F)F)n2)c(NC2CC3(CC(NC(=O)CN4CCN(c5ccc(Nc6ncc7c(C)c(C(C)=O)c(=O)n(C8CCCC8)c7n6)nc5)CC4)C3)C2)n1 (centres unmarked) [CPD-184, 2-((6-(2-(4-(6-((6-acetyl-8-cyclopentyl-5-methyl-7-oxo-7,8-dihydropyrido[2,3-d]pyrimidin-2-yl)amino)pyridin-3-yl)piperazin-1-yl)acetamido)spiro[3.3]heptan-2-yl)amino)-N-(6-(difluoromethyl)pyridin-2-yl)-6-(methylamino)nicotinamide] |
| < 30 | 30 to 50 | CNc1ccc(C(=O)Nc2ccc(N(C)C)nn2)c(NC2CC(CCC(=O)N3CCN(c4ccc(Nc5ncc6c(C)c(C(C)=O)c(=O)n(C7CCCC7)c6n5)nc4)CC3)C2)n1 (centres unmarked) [CPD-185, 2-((3-(3-(4-(6-((6-acetyl-8-cyclopentyl-5-methyl-7-oxo-7,8-dihydropyrido[2,3-d]pyrimidin-2-yl)amino)pyridin-3-yl)piperazin-1-yl)-3-oxopropyl)cyclobutyl)amino)-N-(6-(dimethylamino)pyridazin-3-yl)-6-(methylamino)nicotinamide] |
| < 30 | 50 to 80 | CNc1ccc(C(=O)Nc2ccc(N(C)C)nn2)c(NC2CN(C(=O)CN3CCN(c4ccc(Nc5ncc6c(C)c(C(C)=O)c(=O)n(C7CCCC7)c6n5)nc4)CC3)C2)n1 [CPD-187, 2-((1-(2-(4-(6-((6-acetyl-8-cyclopentyl-5-methyl-7-oxo-7,8-dihydropyrido[2,3-d]pyrimidin-2-yl)amino)pyridin-3-yl)piperazin-1-yl)acetyl)azetidin-3-yl)amino)-N-(6-(dimethylamino)pyridazin-3-yl)-6-(methylamino)nicotinamide] |
| 50 to 80 | 50 to 80 | CNc1ccc(C(=O)Nc2ccc(N(C)C)nn2)c(NCC2CC(CNC(=O)CN3CCN(c4ccc(Nc5ncc6c(C)c(C(C)=O)c(=O)n(C7CCCC7)c6n5)nc4)CC3)C2)n1 (centres unmarked) [CPD-188, 2-(((3-((2-(4-(6-((6-acetyl-8-cyclopentyl-5-methyl-7-oxo-7,8-dihydropyrido[2,3-d]pyrimidin-2-yl)amino)pyridin-3-yl)piperazin-1-yl)acetamido)methyl)cyclobutyl)methyl)amino)-N-(6-(dimethylamino)pyridazin-3-yl)-6-(methylamino)nicotinamide] |
| < 30 | 30 to 50 | CC(=O)c1c(C)c2cnc(Nc3ccc(N4CCN(CC(=O)NC5CC6(C5)CC(Nc5nc(C)ccc5C(=O)Nc5cccc(C)n5)C6)CC4)cn3)nc2n(C2CCCC2)c1=O (centres unmarked) [CPD-191, 2-((6-(2-(4-(6-((6-acetyl-8-cyclopentyl-5-methyl-7-oxo-7,8-dihydropyrido[2,3-d]pyrimidin-2-yl)amino)pyridin-3-yl)piperazin-1-yl)acetamido)spiro[3.3]heptan-2-yl)amino)-6-methyl-N-(6-methylpyridin-2-yl)nicotinamide] |
| < 30 | < 30 | CC(=O)c1c(C)c2cnc(Nc3ccc(N4CCN(CC(=O)NC5CC6(C5)CC(Nc5nc(C)ccc5C(=O)Nc5cc(C)on5)C6)CC4)cn3)nc2n(C2CCCC2)c1=O (centres unmarked) [CPD-192, ((6-(2-(4-(6-((6-acetyl-8-cyclopentyl-5-methyl-7-oxo-7,8-dihydropyrido[2,3-d]pyrimidin-2-yl)amino)pyridin-3-yl)piperazin-1-yl)acetamido)spiro[3.3]heptan-2-yl)amino)-6-methyl-N-(5-methylisoxazol-3-yl)nicotinamide] |
